Patent US7524869B2, “Taxanes having a C10 ester substituent” (Florida State University Research Foundation, Inc., priority 2000, dated 2009)
Read-outs that look alike come from different tables or passages of the source.

Assays:
HCT116 = assay: In vitro cytotoxicity measured by the cell colony formation assay; type: cell-based; conditions: read-out: IN VITRO ID 50 (nm) HCT116
[1] = HCT116 cells, 72 h drug incubation, colonies counted after 7 days, ID50 = drug concentration producing 50% inhibition of colony formation

Structure (SMILES)	IC50 (HCT116; [1]) [nM]	other results
CCC(=O)O[C@H]1C(=O)[C@@]2(C)C([C@H](OC(=O)c3ccccc3)[C@]3(O)C[C@H](OC(=O)[C@H](O)[C@@H](NC(=O)c4ccccc4)c4cccs4)C(C)=C1C3(C)C)[C@]1(OC(C)=O)CO[C@@H]1C[C@@H]2O (stereo partly drawn) [Compound 0687, 3′-Desphenyl-3′-(2-thienyl)-10-propionyl-10-deacetyl taxol]	–	IC50 (HCT116; Homo sapiens, HCT-116): < 1 nM; melting point: 154 to 155 °C
CCCC(=O)O[C@H]1C(=O)[C@@]2(C)C([C@H](OC(=O)c3ccccc3)[C@]3(O)C[C@H](OC(=O)[C@H](O)[C@@H](NC(=O)c4cccnc4)c4cccs4)C(C)=C1C3(C)C)[C@]1(OC(C)=O)CO[C@@H]1C[C@@H]2O (stereo partly drawn) [Compound 4190]	< 10	–
CCC(=O)O[C@H]1C(=O)[C@@]2(C)C([C@H](OC(=O)c3ccccc3)[C@]3(O)C[C@H](OC(=O)[C@H](O)[C@@H](NC(=O)c4ccncc4)c4cccs4)C(C)=C1C3(C)C)[C@]1(OC(C)=O)CO[C@@H]1C[C@@H]2O (stereo partly drawn) [Compound 4207]	< 10	–
CC(=O)O[C@@]12CO[C@@H]1C[C@H](O)[C@@]1(C)C(=O)[C@H](OC(=O)C3CC3)C3=C(C)[C@@H](OC(=O)[C@H](O)[C@@H](NC(=O)C=C(C)C)c4cccs4)C[C@@](O)([C@@H](OC(=O)c4ccccc4)C12)C3(C)C (stereo partly drawn) [Compound 4329]	< 1	–
CCC(=O)O[C@H]1C(=O)[C@@]2(C)C([C@H](OC(=O)c3ccccc3)[C@]3(O)C[C@H](OC(=O)[C@H](O)[C@@H](NC(=O)C=C(C)C)c4cccs4)C(C)=C1C3(C)C)[C@]1(OC(C)=O)CO[C@@H]1C[C@@H]2O (stereo partly drawn) [Compound 4335]	< 1	–
CCCC(=O)O[C@H]1C(=O)[C@@]2(C)C([C@H](OC(=O)c3ccccc3)[C@]3(O)C[C@H](OC(=O)[C@H](O)[C@@H](NC(=O)C=C(C)C)c4cccs4)C(C)=C1C3(C)C)[C@]1(OC(C)=O)CO[C@@H]1C[C@@H]2O (stereo partly drawn) [Compound 4344]	< 1	–
CC(=O)O[C@@]12CO[C@@H]1C[C@H](O)[C@@]1(C)C(=O)[C@H](OC(=O)C3CC3)C3=C(C)[C@@H](OC(=O)[C@H](O)[C@@H](NC(=O)OCC(C)C)c4ccoc4)C[C@@](O)([C@@H](OC(=O)c4ccccc4)C12)C3(C)C (stereo partly drawn) [Compound 4665]	< 10	–
CCCC(=O)O[C@H]1C(=O)[C@@]2(C)C([C@H](OC(=O)c3ccccc3)[C@]3(O)C[C@H](OC(=O)[C@H](O)[C@@H](NC(=O)OCC(C)C)c4ccoc4)C(C)=C1C3(C)C)[C@]1(OC(C)=O)CO[C@@H]1C[C@@H]2O (stereo partly drawn) [Compound 4704]	< 10	–
CCC(=O)O[C@H]1C(=O)[C@@]2(C)C([C@H](OC(=O)c3ccccc3)[C@]3(O)C[C@H](OC(=O)[C@H](O)[C@@H](NC(=O)OCC(C)C)c4ccsc4)C(C)=C1C3(C)C)[C@]1(OC(C)=O)CO[C@@H]1C[C@@H]2O (stereo partly drawn) [Compound 4711]	< 10	–
CC(=O)O[C@@]12CO[C@@H]1C[C@H](O)[C@@]1(C)C(=O)[C@H](OC(=O)C3CC3)C3=C(C)[C@@H](OC(=O)[C@H](O)[C@H](C=C(C)C)NC(=O)OCC(C)C)C[C@@](O)([C@@H](OC(=O)c4ccccc4)C12)C3(C)C (stereo partly drawn) [Compound 4720]	< 10	–
CCC(=O)O[C@H]1C(=O)[C@@]2(C)C([C@H](OC(=O)c3ccccc3)[C@]3(O)C[C@H](OC(=O)[C@H](O)[C@@H](NC(=O)OCC(C)C)C4CC4)C(C)=C1C3(C)C)[C@]1(OC(C)=O)CO[C@@H]1C[C@@H]2O (stereo partly drawn) [Compound 4799]	< 1	–
CCCC(=O)O[C@H]1C(=O)[C@@]2(C)C([C@H](OC(=O)c3ccccc3)[C@]3(O)C[C@H](OC(=O)[C@H](O)[C@@H](NC(=O)OCC(C)C)C4CC4)C(C)=C1C3(C)C)[C@]1(OC(C)=O)CO[C@@H]1C[C@@H]2O (stereo partly drawn) [Compound 4808]	< 10	–
CCCC(=O)O[C@H]1C(=O)[C@@]2(C)C([C@H](OC(=O)c3ccccc3)[C@]3(O)C[C@H](OC(=O)[C@H](O)[C@@H](NC(=O)OCC(C)C)c4ccsc4)C(C)=C1C3(C)C)[C@]1(OC(C)=O)CO[C@@H]1C[C@@H]2O (stereo partly drawn) [Compound 4834]	< 10	–
C/C=C/C(=O)N[C@@H](c1ccoc1)[C@@H](O)C(=O)O[C@H]1C[C@@]2(O)[C@@H](OC(=O)c3ccccc3)C3[C@](C)(C(=O)[C@H](OC(=O)CC)C(=C1C)C2(C)C)[C@@H](O)C[C@H]1OC[C@@]31OC(C)=O (stereo partly drawn) [Compound 4888]	< 1	–
C/C=C/C(=O)N[C@@H](c1ccoc1)[C@@H](O)C(=O)O[C@H]1C[C@@]2(O)[C@@H](OC(=O)c3ccccc3)C3[C@](C)(C(=O)[C@H](OC(=O)CCC)C(=C1C)C2(C)C)[C@@H](O)C[C@H]1OC[C@@]31OC(C)=O (stereo partly drawn) [Compound 4919]	< 1	–
C/C=C/C(=O)N[C@@H](c1ccoc1)[C@@H](O)C(=O)O[C@H]1C[C@@]2(O)[C@@H](OC(=O)c3ccccc3)C3[C@](C)(C(=O)[C@H](OC(=O)C4CC4)C(=C1C)C2(C)C)[C@@H](O)C[C@H]1OC[C@@]31OC(C)=O (stereo partly drawn) [Compound 4944]	< 1	–
CC(=O)O[C@@]12CO[C@@H]1C[C@H](O)[C@@]1(C)C(=O)[C@H](OC(=O)C3CC3)C3=C(C)[C@@H](OC(=O)[C@H](O)[C@@H](NC(=O)OCC(C)C)c4ccsc4)C[C@@](O)([C@@H](OC(=O)c4ccccc4)C12)C3(C)C (stereo partly drawn) [Compound 5011]	< 10	–
C/C=C/C(=O)N[C@@H](c1ccsc1)[C@@H](O)C(=O)O[C@H]1C[C@@]2(O)[C@@H](OC(=O)c3ccccc3)C3[C@](C)(C(=O)[C@H](OC(=O)C4CC4)C(=C1C)C2(C)C)[C@@H](O)C[C@H]1OC[C@@]31OC(C)=O (stereo partly drawn) [Compound 5040]	< 1	–
CCC(=O)O[C@H]1C(=O)[C@@]2(C)C([C@H](OC(=O)c3ccccc3)[C@]3(O)C[C@H](OC(=O)[C@H](O)[C@H](C=C(C)C)NC(=O)OCC(C)C)C(C)=C1C3(C)C)[C@]1(OC(C)=O)CO[C@@H]1C[C@@H]2O (stereo partly drawn) [Compound 5065]	< 10	–
CCCC(=O)O[C@H]1C(=O)[C@@]2(C)C([C@H](OC(=O)c3ccccc3)[C@]3(O)C[C@H](OC(=O)[C@H](O)[C@H](C=C(C)C)NC(=O)OCC(C)C)C(C)=C1C3(C)C)[C@]1(OC(C)=O)CO[C@@H]1C[C@@H]2O (stereo partly drawn) [Compound 5144]	< 10	–
CC(=O)O[C@@]12CO[C@@H]1C[C@H](O)[C@@]1(C)C(=O)[C@H](OC(=O)C3CC3)C3=C(C)[C@@H](OC(=O)[C@H](O)[C@@H](NC(=O)OCC(C)C)C4CC4)C[C@@](O)([C@@H](OC(=O)c4ccccc4)C12)C3(C)C (stereo partly drawn) [Compound 5232]	< 10	–
CCC(=O)O[C@H]1C(=O)[C@@]2(C)C([C@H](OC(=O)c3ccccc3)[C@]3(O)C[C@H](OC(=O)[C@H](O)[C@@H](NC(=O)OC(C)(C)C)c4ccoc4)C(C)=C1C3(C)C)[C@]1(OC(C)=O)CO[C@@H]1C[C@@H]2O (stereo partly drawn) [Compound 5495]	< 1	–
CCC(=O)O[C@H]1C(=O)[C@@]2(C)C([C@H](OC(=O)c3ccccc3)[C@]3(O)C[C@H](OC(=O)[C@H](O)[C@@H](NC(=O)OC(C)(C)CC)c4ccco4)C(C)=C1C3(C)C)[C@]1(OC(C)=O)CO[C@@H]1C[C@@H]2O (stereo partly drawn) [Compound 6522]	< 1	–
